Laboratory results published in the supplement of paper PMC10307832.

How the values were obtained:
Test in all cases: relative viability (nuclei count vs DMSO), 5 days (fraction); higher = more cells survive
[1] = compound: C1=CC=C(C(=C1)C2=CC=C(C=C2)C3=CSC4=C3C(=C(C(=O)N4)C#N)O)O + C[C@]1(O)C[C@@H](c2nc(-c3ccc4ccc(-c5ccccc5)nc4c3)c3c(N)nccn32)C1 [Linsitinib] (partner 1 µM)
Outline: (§1)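 Relative viability equals treated-well nuclei counts divided by vehicle-well nuclei counts. Counts came from 4× images of lung cancer cell lines grown in 1536-well plates for 5 days after pin-tool dosing on the day after seeding. Dosing used one drug alone or a fixed anchor-drug dose plus five library-drug doses (not always all listed) in √10 steps, and values are medians of duplicate plates.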

[2] = compound: C1=CC=C(C(=C1)C2=CC=C(C=C2)C3=CSC4=C3C(=C(C(=O)N4)C#N)O)O + Cc1nc(NC(=O)N2CCC[C@H]2C(N)=O)sc1-c1ccnc(C(C)(C)C(F)(F)F)c1 [Alpelisib] (partner 2 µM)
Outline: as §1

[3] = compound: C1=CC=C(C(=C1)C2=CC=C(C=C2)C3=CSC4=C3C(=C(C(=O)N4)C#N)O)O + O=C(c1cc(Cc2n[nH]c(=O)c3ccccc23)ccc1F)N1CCN(C(=O)C2CC2)CC1 [Olaparib] (partner 8 µM)
Outline: as §1

[4] = compound: C1=CC=C(C(=C1)C2=CC=C(C=C2)C3=CSC4=C3C(=C(C(=O)N4)C#N)O)O + C[C@@H](Oc1cc(-c2cnn(C3CCNCC3)c2)cnc1N)c1c(Cl)ccc(F)c1Cl [Crizotinib] (partner 1 µM)
Outline: as §1

Cell Line	relative viability ([1]; first compound 0.08 µM)	relative viability ([1]; first compound 0.253 µM)	relative viability ([1]; first compound 0.8 µM)	relative viability ([1]; first compound 2.53 µM)	relative viability ([1]; first compound 8 µM)	relative viability ([2]; first compound 0.08 µM)	relative viability ([2]; first compound 0.253 µM)	relative viability ([2]; first compound 0.8 µM)	relative viability ([2]; first compound 2.53 µM)	relative viability ([2]; first compound 8 µM)	relative viability ([3]; first compound 0.08 µM)	relative viability ([3]; first compound 0.253 µM)	relative viability ([3]; first compound 0.8 µM)	relative viability ([3]; first compound 2.53 µM)	relative viability ([3]; first compound 8 µM)	relative viability ([4]; first compound 0.08 µM)	relative viability ([4]; first compound 0.253 µM)	relative viability ([4]; first compound 0.8 µM)	relative viability ([4]; first compound 2.53 µM)	relative viability ([4]; first compound 8 µM)
201T	1.09	1.06	1.03	1.02	1.1	1.08	1.03	1.01	1.01	1.08	0.652	0.812	0.828	0.74	0.885	0.992	1.08	1.06	1.01	1.11
A549	0.635	0.606	0.509	0.521	0.393	0.733	1.14	0.908	0.707	0.604	0.275	0.208	0.314	0.375	0.379	0.493	0.998	0.688	0.885	0.55
A-427	1.09	1.12	1.11	1.15	1.18	1.08	1.13	1.13	1.11	1.12	0.781	0.71	0.849	0.712	0.793	0.905	1.08	0.998	1.05	0.988
ABC-1	0.926	0.906	0.856	0.875	0.735	1.09	1.08	1.08	0.878	1.01	0.856	1.22	1.06	0.701	0.829	0.743	1.55	1.05	0.928	1
BEN	0.609	0.999	0.93	1.21	0.822	0.828	1.11	0.918	1.27	0.756	0.987	1.38	1.03	1.19	0.971	0.771	0.948	0.886	1.02	0.776
CAL-12T	0.636	1.12	0.762	0.907	0.787	–	1.05	0.989	1.2	0.861	0.724	0.834	0.824	0.856	0.651	–	0.789	0.441	0.739	0.485
COR-L23	0.703	0.816	1.02	0.99	0.747	0.832	0.998	0.702	0.92	0.63	0.318	0.343	0.32	0.365	0.322	0.577	0.89	0.772	0.644	0.533
COR-L 105	0.964	0.781	0.924	0.957	0.953	0.859	1.04	0.93	0.802	0.953	0.695	0.793	1.03	0.688	0.859	0.712	1.04	0.646	0.778	0.646
Calu-6	0.95	1.1	1.06	1.01	0.786	1.15	0.993	1.11	1.01	1.09	0.721	0.595	0.643	0.63	0.615	0.614	0.967	0.726	0.863	0.635
ChaGo-K-1	–	–	–	–	–	–	–	–	–	–	0.388	0.443	0.396	0.439	0.45	1.06	1.43	1.31	1.17	0.817
EBC-1	0.784	1.16	0.642	0.925	0.781	0.885	0.877	0.721	0.865	0.712	0.741	0.701	0.664	0.719	0.587	0.202	0.21	0.19	0.199	0.191
NCI-H522	–	–	–	–	–	–	–	–	–	–	0.567	0.674	0.778	0.56	0.645	–	–	–	–	–
NCI-H1395	–	1.89	1.13	1.03	1.38	–	1.17	1.16	1.09	0.967	–	0.469	0.479	0.458	0.446	–	–	–	–	–
NCI-H1563	1.16	1.06	1.11	1.23	1.31	0.783	1.03	0.991	0.832	0.998	–	–	–	–	–	0.736	0.862	0.884	0.904	0.858
NCI-H1648	–	–	–	–	–	–	–	–	–	–	–	0.689	0.841	0.31	0.722	–	–	–	–	–
NCI-H1650	–	–	–	–	–	–	–	–	–	–	0.716	1.03	0.742	0.759	0.645	–	1.16	0.943	1.06	0.919
NCI-H1793	0.679	1.12	0.747	0.856	0.508	0.699	0.624	0.598	0.581	0.45	0.929	0.937	0.867	0.882	0.78	–	–	–	–	–
NCI-H2170	–	–	–	–	–	0.797	0.79	0.884	0.786	0.685	0.624	0.617	0.571	0.687	0.528	1.13	1.34	1.25	1.28	0.888
NCI-H2342	–	–	–	–	–	–	–	–	–	–	0.475	0.53	0.432	0.517	0.395	–	–	–	–	–
SW 900	–	–	–	–	–	–	–	–	–	–	–	1.13	0.869	0.903	0.839	–	–	–	–	–
